Read-outs that look alike come from different tables or passages of the source.
Legend:
CB2 receptors = assay: estimated affinity relative to CBD; format: binding
Source text: Because CB2 receptors have a low affinity for CBD, large doses of CBD have increasingly advantageous pharmacological effects. However, CBD is relatively expensive, so the ratio of CBD to other components is more prone to cost/efficacy trade-offs than other components of the formulation. Alternatives can skimp on CBD and even drop the ratio of CBD-to-caffeine below the recommended 1:1 ratio, which should have acceptable effects so long as the caffeine is not in such a high dosage that it causes jitters.
A greater proportion of CBD may be desirable for the purpose of binding to theorized CBD3 receptors or other presently poorly defined receptors with less affinity for CBD. A high dose of CBD, over 100 mg up to less than 250 mg can have a sedative effect that may be effective for certain individuals, though it is unlikely desirable to reach 250 mg, which is approaching the liver enzyme inhibition dose. Although, currently marketed energy drinks have as much as 250 mg caffeine, it would be difficult to fit that much caffeine into a nurdle while maintaining a 1:1 ratio of CBD-to-caffeine (not to mention the 1:2 ratio of caffeine-to-theanine), so the upper ranges of CBD become largely irrelevant in this particular product due to volumetric constraints. […]

TrpV1 receptor = target: T1, TrpV1 receptor (Homo sapiens, UniProt Q8NER1); details: absorbed through mucosa; cited from earlier work
T1 construct: It typically takes over 20 minutes for CBD absorbed through mucosa to provide significant pain relief; from tissue; host or cells: oral mucosa / body of the user (in vivo)
T1 sequence (Q8NER1 whole entry): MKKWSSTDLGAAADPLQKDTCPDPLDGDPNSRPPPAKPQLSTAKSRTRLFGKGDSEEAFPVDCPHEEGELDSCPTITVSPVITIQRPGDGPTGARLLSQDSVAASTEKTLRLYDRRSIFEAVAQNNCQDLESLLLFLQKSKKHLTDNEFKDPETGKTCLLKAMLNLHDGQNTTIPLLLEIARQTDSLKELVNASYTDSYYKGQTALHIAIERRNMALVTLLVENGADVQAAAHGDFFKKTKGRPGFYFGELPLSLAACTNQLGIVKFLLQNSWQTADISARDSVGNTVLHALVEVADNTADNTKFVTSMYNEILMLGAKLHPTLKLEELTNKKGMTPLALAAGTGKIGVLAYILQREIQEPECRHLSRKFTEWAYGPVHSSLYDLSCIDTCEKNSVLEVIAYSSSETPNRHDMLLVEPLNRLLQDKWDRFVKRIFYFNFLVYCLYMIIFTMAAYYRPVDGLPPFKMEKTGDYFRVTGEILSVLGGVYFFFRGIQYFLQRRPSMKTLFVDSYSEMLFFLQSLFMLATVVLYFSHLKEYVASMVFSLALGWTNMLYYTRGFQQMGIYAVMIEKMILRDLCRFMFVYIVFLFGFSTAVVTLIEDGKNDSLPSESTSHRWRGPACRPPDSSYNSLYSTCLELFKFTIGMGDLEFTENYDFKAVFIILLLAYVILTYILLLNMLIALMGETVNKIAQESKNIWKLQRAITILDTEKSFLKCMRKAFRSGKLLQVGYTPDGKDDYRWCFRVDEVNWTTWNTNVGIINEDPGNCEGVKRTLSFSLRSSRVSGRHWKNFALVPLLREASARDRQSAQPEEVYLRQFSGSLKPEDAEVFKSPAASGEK

[1] = bioavailability after oral, mucosal/buccal or enteric delivery; format: in vivo
Experimental: B6 helps the body produce neurotransmitters (e.g., serotonin); it can block glutamate and help the brain learn to calm. […] B6 can also be delivered enterically with nearly 100% bioavailability, as well.
In a specific implementation, microencapsulated CBD is provided as an analgesic in an edible toothpaste. In this specific implementation, 20 mg of the CBD is microencapsulated for buccal delivery to act as a localized analgesic in the mouth. CBD is degraded in the stomach but, as was discussed above, CBD is readily absorbed in mucosa. Although it is recognized not all patients will follow best practices, bioavailability estimates assume the amount of time spent brushing is 2 minutes, which is the time span over which the edible toothpaste remains in the mouth and which is long enough to make almost all of CBD formulated for buccal delivery bioavailable. Accordingly, when the product is used as directed, the CBD remains in the mouth long enough to achieve over 90% bioavailability. Thus, the amount of buccally delivered CBD can be added to that of enterically delivered CBD to determine a total systemic dose.
As with the edible toothpaste described above, a first portion of the CBD is formulated for buccal delivery and a second portion of the CBD is formulated for enteric delivery. […] CBD is degraded in the stomach but, as was discussed above, CBD is readily absorbed in mucosa. […]

[2] = cited from earlier work
[3] = in vivo; cited from earlier work
[4] = mucosal quick release, retained in the mouth for several seconds; cited from earlier work

Question: For 2-Lineoleoyl-glycerol, which “affinity relative to CBD” value (CB2 receptors) is on record?
Answer: ~1,000 times

Question: For 2-Palmitolyl-glycerol, which “affinity relative to CBD” value (CB2 receptors) is on record?
Answer: ~1,000 times

Question: With `C=C(C)[C@@H]1CCC(C)=C[C@H]1c1c(O)cc(CCCCC)cc1O` [CBD] as the molecule, how does the “time to provide significant pain relief” value (TrpV1 receptor) read?
Answer: over 20 minutes

Question: What about the bioavailability ([1]; buccal delivery from edible toothpaste, estimate assumes 2 minutes brushing) of the same molecule?
Answer: over 90%

Question: What about the bioavailability ([1]; buccal delivery from mouthwash, estimate assumes 30 seconds to one minute in the mouth) of the same molecule?
Answer: over 90%

Question: And the “half-life in the bloodstream” value ([2]; frequent user)?
Answer: 120 to 312 h

Question: What about the “half-life in the bloodstream” value ([2]; infrequent user) of the same molecule?
Answer: about 1.3 days

Question: For `CC1CCC(C(C)C)C(O)C1` (stereo not drawn) [menthol], which lethal dose [3] is on record?
Answer: ≥ 50 mg/kg

Question: Which bioavailable [4] does the source give for `CCCCCCCCCCCCCCCC(=O)OCc1cnc(C)c(OC(=O)CCCCCCCCCCCCCCC)c1COC(=O)CCCCCCCCCCCCCCC` [pyridoxine tripalmitate] here?
Answer: over 90%
